Data: patent publication US12649733B2, “3,6-diamino-pyridazin-3-yl derivatives, pharmaceutical compositions containing them and their uses as pro-apoptotic agents” (LES LABORATOIRES SERVIER, priority 2019, dated 2026)

Key:
BCLXL [1] = target: T1, BCLXL (Homo sapiens, UniProt Q07817, V10N/V9A); assay: Fluorescence polarisation assay (PUMA-based probe displacement); type: binding; also: 20 nM protein, 10 nM fluorescent probe
MOLT-4 cells = assay: MOLT-4 cell viability, MTT assay; type: cell-based; settings: Homo sapiens, MOLT-4, 48 h, 48 h exposure
Method in brief: (§1)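 Viability read by MTT reduction (OD 540 nm after overnight SDS/HCl lysis) after 48 h compound treatment of cells in RPMI 1640/10% FBS. Triplicates at nine concentrations, 3.16-fold apart; four-parameter curve fitting yields IC50.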

BCLXL [2] = target: T1, BCLXL; assay: AlphaLISA assay (BIM peptide displacement); type: binding; settings: 20 pM protein, 1 nM peptide
Procedure: AlphaLISA assay measures an increase in alpha signal upon binding biotinylated GST(1-218)-(FACTOR_XA)-hs ? (2-209)(SEQ ID:02—GST UniProtKB® primary accession number P08515 and BCLXL UniProtKB® primary accession number Q07817-1) coupled to a Streptavidin labeled Alpha donor bead to N-terminally labeled peptide derived from BIM (Fluorescein-betaAla-Ahx-SEQID:05, wherein SEQ ID:05 is […]) coupled to an Anti-FTIC AlphaLISA acceptor bead.
GST(1-218)(FACTOR_XA)-hs ? (2-209) was biotinylated in 50 mM phosphate buffer using a 20 fold excess of EZ Link NHS-LC-Biotin (thermoFisher catalogue number 21336) overnight at 4° C.
The addition of a compound which binds competitively to the same site as the peptide will result in an decrease in the Alpha signal of the available donor bead-protein-peptide-acceptor bead complex due to displacement of the peptide.
An 11-point serial dilution of each compound was prepared in DMSO, the final buffer conditions were 10 mM 4-(2-hydroxyethyl)-1-piperazineethanesulfonic acid [HEPES], 150 mM NaCl, 0.05% Tween 20, pH 7.4 and 4% DMSO. The final protein concentration in the assay was 20 pM with the peptide present at 1 nM). Alpha beads were used at a final concentration of 5 ug/mL. The experiments were incubated for overnight at 23° C. after acceptor bead addition. Finally the donor bead is added and incubated for 2 hours at 23° C. before Alpha signal measured on a Biotek Synergy2 plate reader (Excitation 680 nm, emission 615 nm).

H146 cells = assay: H146 cell viability, MTT assay; type: cell-based; settings: Homo sapiens, NCI-H146, 48 h, 48 h exposure
Method in brief: as §1

T1 sequence (Q07817 with tags, fused parts or gaps V9A/V10N): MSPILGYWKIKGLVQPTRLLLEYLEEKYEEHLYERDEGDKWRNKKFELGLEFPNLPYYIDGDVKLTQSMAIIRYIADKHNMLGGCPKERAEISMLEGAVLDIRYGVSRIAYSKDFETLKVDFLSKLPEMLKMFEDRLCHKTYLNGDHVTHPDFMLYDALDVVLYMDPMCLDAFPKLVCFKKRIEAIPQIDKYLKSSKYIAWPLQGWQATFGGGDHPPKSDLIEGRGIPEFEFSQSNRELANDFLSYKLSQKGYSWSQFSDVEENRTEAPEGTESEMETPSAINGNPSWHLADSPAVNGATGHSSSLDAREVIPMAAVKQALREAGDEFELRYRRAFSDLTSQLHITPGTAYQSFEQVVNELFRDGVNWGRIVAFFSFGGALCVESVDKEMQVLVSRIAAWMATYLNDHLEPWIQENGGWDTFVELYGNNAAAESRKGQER

Row | SMILES | Ki (BCLXL [1]) [nM] | IC50 (MOLT-4 cells) [nM] | IC50 (BCLXL [2]) [nM] | IC50 (H146 cells) [nM]
1 | Cc1c(Nc2nc(C(=O)O)c(CCCOc3ccc(C#CCN(C)C)cc3F)s2)nnc(Nc2nc3ccccc3s2)c1C [Example 3, 2-({6-[(1,3-Benzothiazol-2-yl)amino]-4,5-dimethylpyridazin-3-yl}amine)-5-(3-{4-[3-(dimethylamino)prop-1-yn-1-yl]-2-fluorophenoxy}propyl)-1,3-thiazole-4-carboxylic acid] | 1.9 | 90 | 0.096 | 42
2 | COCCCc1sc(N(C)c2cc(C)c(Nc3nc4ccccc4s3)nn2)nc1C(=O)O [Example 60, 2-({6-[(1,3-Benzothiazol-2-yl)amino]-5-methylpyridazin-3-yl}(methyl)amino)-5-(3-methoxypropyl)-1,3-thiazole-4-carboxylic acid] | 1.5 | 2740 | 0.96 | 5800
3 | Cc1cc(N(C)c2nc(C(=O)O)c(C3CCN(C(=O)Cc4ccccc4)CC3)s2)nnc1Nc1nc2ccccc2s1 [Example 96, 2-({6-[(1,3-Benzothiazol-2-yl)amino]-5-methylpyridazin-3-yl}(methyl)amino)-5-[1-(2-phenylacetyl)piperidin-4-yl]-1,3-thiazole-4-carboxylic acid] | 220 |  | 270 | 
4 | CNCC#Cc1ccc(OCCCc2sc(N(CCCC(CO)OC)c3cc(C)c(Nc4nc5ccccc5s4)nn3)nc2C(=O)O)c(F)c1 (stereo not drawn) [Example 112, 2-[[6-(1,3-Benzothiazol-2-ylamino)-5-methyl-pyridazin-3-yl]-(5-hydroxy-4-methoxy-pentyl)amino]-5-[3-[2-fluoro-4-[3-(methylamino)prop-1-ynyl]phenoxy]propyl]thiazole-4-carboxylic acid] |  | 77.5 | 0.028 | 30.9
5 | CNCC#Cc1ccc(OCCCc2sc(N(CCCC(O)CN3CCOCC3)c3cc(C)c(Nc4nc5ccccc5s4)nn3)nc2C(=O)O)c(F)c1 (stereo not drawn) [Example 113, 2-[[6-(1,3-Benzothiazol-2-ylamino)-5-methyl-pyridazin-3-yl]-(4-hydroxy-5-morpholino-pentyl)amino]-5-[3-[2-fluoro-4-[3-(methylamino)prop-1-ynyl]phenoxy]propyl]thiazole-4-carboxylic acid] |  | 25.7 | 0.028 | 13
6 | Cc1ccc(S(=O)(=O)N(C)CC#Cc2ccc(OCCCc3sc(N(CCC(O)CO)c4cc(C)c(Nc5nc6ccccc6s5)nn4)nc3C(=O)O)c(F)c2)cc1 (stereo not drawn) [Example 120, 2-[[6-(1,3-Benzothiazol-2-ylamino)-5-methyl-pyridazin-3-yl]-(3,4-dihydroxybutyl)amino]-5-[3-[2-fluoro-4-[3-[methyl(p-tolylsulfonyl)amino]prop-1-ynyl]phenoxy]propyl]thiazole-4-carboxylic acid] |  | 557 | 0.099 | 280
7 | Cc1cc(N(C)c2nc(C(=O)O)c(C3CN(C(=O)OC(C)(C)C)C3)s2)nnc1Nc1nc2ccccc2s1 [Example 135, 2-({6-[(1,3-Benzothiazol-2-yl)amino]-5-methylpyridazin-3-yl}(methyl)amino)-5-{1-[(tert-butoxy)carbonyl]azetidin-3-yl}-1,3-thiazole-4-carboxylic acid] |  | 3240 | 3.9 | 5290
8 | Cc1cc(N(C)c2nc(C(=O)O)c(CC(C)(C)COc3ccc(C#CCN(C)C)cc3F)s2)nnc1Nc1nc2ccccc2s1 [Example 137, 2-({6-[(1,3-Benzothiazol-2-yl)amino]-5-methylpyridazin-3-yl}(methyl)amino)-5-(3-{4-[3-(dimethylamino)prop-1-yn-1-yl]-2-fluorophenoxy}-2,2-dimethylpropyl)-1,3-thiazole-4-carboxylic acid] |  | 61.4 | 0.27 | 320
9 | Cc1cc(N(C)c2nc(C(=O)O)c(C3CNC3)s2)nnc1Nc1nc2ccccc2s1 [Example 139, 5-(Azetidin-3-yl)-2-({6-[(1,3-benzothiazol-2-yl)amino]-5-methylpyridazin-3-yl}(methyl)amino)-1,3-thiazole-4-carboxylic acid] | 640 |  | 270 | 
10 | Cc1cc(N(CCCCO)c2nc(C(=O)O)c(CCCOc3ccc(C#CCN(C)CCCS(=O)(=O)O)cc3F)s2)nnc1Nc1nc2ccccc2s1 [Example 151, 2-[[6-(1,3-Benzothiazol-2-ylamino)-5-methyl-pyridazin-3-yl]-(4-hydroxybutyl)amino]-5-[3-[2-fluoro-4-[3-[methyl(3-sulfopropyl)amino]prop-1-ynyl]phenoxy]propyl]thiazole-4-carboxylic acid] | < 1 | 194 | 0.005 | 
11 | C/C(=C\c1sc(N(C)c2cc(C)c(Nc3nc4ccccc4s3)nn2)nc1C(=O)O)COc1ccccc1 [Example 162, 2-({6-[(1,3-Benzothiazol-2-yl)amino]-5-methylpyridazin-3-yl}(methyl)amino)-5-[(1E)-2-methyl-3-phenoxyprop-1-en-1-yl]-1,3-thiazole-4-carboxylic acid] |  | 3170 | 1.9 | 6590

Further lines, results first:

Row | Ki (BCLXL [1]) [nM] | IC50 (MOLT-4 cells) [nM] | IC50 (BCLXL [2]) [nM] | IC50 (H146 cells) [nM] | SMILES
12 | 1.4 | 5.07 | 0.025 | 35.2 | COCCCN(c1cc(C)c(Nc2nc3ccccc3s2)nn1)c1nc(C(=O)O)c(CCCOc2ccc(C#CCN(C)C)cc2F)s1 [Example 54, 2-({6-[(1,3-Benzothiazol-2-yl)amino]-5-methylpyridazin-3-yl}(3-methoxypropyl)amino)-5-(3-{4-[3-(dimethylamino)prop-1-yn-1-yl]-2-fluorophenoxy}propyl)-1,3-thiazole-4-carboxylic acid]
13 | < 1 | 76.1 | 0.14 | 271 | Cc1cc(N(C)c2nc(C(=O)O)c(CCCOc3ccccc3F)s2)nnc1Nc1nc2ccccc2s1 [Example 59, 2-({6-[(1,3-Benzothiazol-2-yl)amino]-5-methylpyridazin-3-yl}(methyl)amino)-5-[3-(2-fluorophenoxy)propyl]-1,3-thiazole-4-carboxylic acid]
14 | 130 |  | 210 |  | CC(=O)N1CCC(c2sc(N(C)c3cc(C)c(Nc4nc5ccccc5s4)nn3)nc2C(=O)O)CC1 [Example 97, 5-(1-Acetylpiperidin-4-yl)-2-({6-[(1,3-benzothiazol-2-yl)amino]-5-methylpyridazin-3-yl}(methyl)amino)-1,3-thiazole-4-carboxylic acid]
15 |  | > 150 | 0.089 | > 150 | CNCC#Cc1ccc(OCCCc2sc(N(CC(CO)N3CCOCC3)c3cc(C)c(Nc4nc5ccccc5s4)nn3)nc2C(=O)O)c(F)c1 (stereo not drawn) [Example 115, 2-[[6-(1,3-Benzothiazol-2-ylamino)-5-methyl-pyridazin-3-yl]-(3-hydroxy-2-morpholino-propyl)amino]-5-[3-[2-fluoro-4-[3-(methylamino)prop-1-ynyl]phenoxy]propyl]thiazole-4-carboxylic acid]
16 | 29 |  | 11 |  | Cc1cc(N(C)c2nc(C(=O)O)c(C3CN(C(=O)Cc4ccccc4)C3)s2)nnc1Nc1nc2ccccc2s1 [Example 138, 2-({6-[(1,3-Benzothiazol-2-yl)amino]-5-methylpyridazin-3-yl}(methyl)amino)-5-[1-(2-phenylacetyl)azetidin-3-yl]-1,3-thiazole-4-carboxylic acid]
17 | 50 |  | 10 |  | Cc1cc(N(CCCC(O)CN(C)CCN(C)C)c2nc(C(=O)O)cs2)nnc1Nc1nc2ccccc2s1 (stereo not drawn) [Example 142, 2-[[6-(1,3-Benzothiazol-2-ylamino)-5-methyl-pyridazin-3-yl]-[5-[2-(dimethylamino)ethyl-methyl-amino]-4-hydroxy-pentyl]amino]thiazole-4-carboxylic acid]
18 | 180 |  | 190 |  | Cc1cc(N(C)c2nc(C(=O)O)c(C3CN(Cc4ccccc4)C3)s2)nnc1Nc1nc2ccccc2s1 [Example 145, 2-({6-[(1,3-Benzothiazol-2-yl)amino]-5-methylpyridazin-3-yl}(methyl)amino)-5-(1-benzylazetidin-3-yl)-1,3-thiazole-4-carboxylic acid]
19 |  |  | 2.3 |  | CC(=O)N1CC(c2sc(N(C)c3cc(C)c(Nc4nc5ccccc5s4)nn3)nc2C(=O)O)C1 [Example 152, 5-(1-Acetylazetidin-3-yl)-2-({6-[(1,3-benzothiazol-2-yl)amino]-5-methylpyridazin-3-yl}(methyl)amino)-1,3-thiazole-4-carboxylic acid]
20 |  |  | 80 |  | Cc1cc(N(C)c2nc(C(=O)O)c(C3CN(c4ccccc4)C3)s2)nnc1Nc1nc2ccccc2s1 [Example 153, 2-({6-[(1,3-Benzothiazol-2-yl)amino]-5-methylpyridazin-3-yl}(methyl)amino)-5-(1-phenylazetidin-3-yl)-1,3-thiazole-4-carboxylic acid]
